c1ccc2c(c1)OP1(=NP3(=NP4(=N1)Oc1ccccc1O4)Oc1ccccc1O3)O2
solubility (mole fraction) (in 1,2-dichloroethane, 293.25 K): 0.000409
solubility (mole fraction) (in 1,2-dichloroethane, 298.35 K): 0.000585
solubility (mole fraction) (in 1,2-dichloroethane, 303.15 K): 0.000765
solubility (mole fraction) (in 1,2-dichloroethane, 308.15 K): 0.00107
solubility (mole fraction) (in 1,2-dichloroethane, 313.25 K): 0.0015
solubility (mole fraction) (in 1,2-dichloroethane, 318.55 K): 0.00195
solubility (mole fraction) (in 1,2-dichloroethane, 323.15 K): 0.00252
solubility (mole fraction) (in 1,2-dichloroethane, 328.55 K): 0.00324
solubility (mole fraction) (in 1,2-dichloroethane, 333.15 K): 0.00419
solubility (mole fraction) (in 1,2-dichloroethane, 338.25 K): 0.00582
solubility (mole fraction) (in THF, 291.95 K): 0.000921
solubility (mole fraction) (in THF, 298.25 K): 0.00112
solubility (mole fraction) (in THF, 303.65 K): 0.00137
solubility (mole fraction) (in THF, 307.95 K): 0.00159
solubility (mole fraction) (in THF, 313.25 K): 0.00188
solubility (mole fraction) (in THF, 318.35 K): 0.00218
solubility (mole fraction) (in THF, 323.15 K): 0.0025
solubility (mole fraction) (in THF, 328.25 K): 0.00292
solubility (mole fraction) (in acetone, 294.35 K): 0.00025
solubility (mole fraction) (in acetone, 298.35 K): 0.000323
solubility (mole fraction) (in acetone, 303.45 K): 0.000429
solubility (mole fraction) (in acetone, 308.65 K): 0.000588
solubility (mole fraction) (in acetone, 313.35 K): 0.000759
solubility (mole fraction) (in acetone, 318.15 K): 0.000977
solubility (mole fraction) (in acetone, 323.25 K): 0.00126
solubility (mole fraction) (in acetonitrile, 293.25 K): 0.000116
solubility (mole fraction) (in acetonitrile, 298.15 K): 0.000217
solubility (mole fraction) (in acetonitrile, 303.25 K): 0.000289
solubility (mole fraction) (in acetonitrile, 308.15 K): 0.000369
solubility (mole fraction) (in acetonitrile, 313.55 K): 0.000471
solubility (mole fraction) (in acetonitrile, 318.25 K): 0.000586
solubility (mole fraction) (in acetonitrile, 323.15 K): 0.000743
solubility (mole fraction) (in acetonitrile, 328.35 K): 0.000922
solubility (mole fraction) (in acetonitrile, 333.15 K): 0.00115
solubility (mole fraction) (in chloroform, 298.15 K): 0.00214
solubility (mole fraction) (in chloroform, 303.05 K): 0.0027
solubility (mole fraction) (in chloroform, 308.05 K): 0.00334
solubility (mole fraction) (in chloroform, 313.65 K): 0.00427
solubility (mole fraction) (in chloroform, 318.55 K): 0.00519
solubility (mole fraction) (in chloroform, 323.05 K): 0.00628
solubility (mole fraction) (in chloroform, 328.75 K): 0.00771
solubility (mole fraction) (in dichloromethane, 288.15 K): 0.00108
solubility (mole fraction) (in dichloromethane, 291.55 K): 0.00127
solubility (mole fraction) (in dichloromethane, 294.45 K): 0.00145
solubility (mole fraction) (in dichloromethane, 298.35 K): 0.00175
solubility (mole fraction) (in dichloromethane, 303.45 K): 0.00219
solubility (mole fraction) (in dichloromethane, 308.65 K): 0.00276
solubility (mole fraction) (in ethanol, 293.95 K): 9.52e-05
solubility (mole fraction) (in ethanol, 298.05 K): 0.000117
solubility (mole fraction) (in ethanol, 303.25 K): 0.000153
solubility (mole fraction) (in ethanol, 308.35 K): 0.000194
solubility (mole fraction) (in ethanol, 313.35 K): 0.000234
solubility (mole fraction) (in ethanol, 318.15 K): 0.000308
solubility (mole fraction) (in ethanol, 322.95 K): 0.00038
solubility (mole fraction) (in ethanol, 328.15 K): 0.000451
solubility (mole fraction) (in ethanol, 332.45 K): 0.000562
solubility (mole fraction) (in ethyl acetate, 298.15 K): 0.000419
solubility (mole fraction) (in ethyl acetate, 303.35 K): 0.000563
solubility (mole fraction) (in ethyl acetate, 308.25 K): 0.000675
solubility (mole fraction) (in ethyl acetate, 313.45 K): 0.000856
solubility (mole fraction) (in ethyl acetate, 318.25 K): 0.00107
solubility (mole fraction) (in ethyl acetate, 323.15 K): 0.00133
solubility (mole fraction) (in ethyl acetate, 328.15 K): 0.00166
solubility (mole fraction) (in ethyl acetate, 332.45 K): 0.00188
solubility (mole fraction) (in toluene, 293.15 K): 0.000667
solubility (mole fraction) (in toluene, 298.25 K): 0.000868
solubility (mole fraction) (in toluene, 303.15 K): 0.00108
solubility (mole fraction) (in toluene, 308.35 K): 0.00137
solubility (mole fraction) (in toluene, 313.55 K): 0.0017
solubility (mole fraction) (in toluene, 318.25 K): 0.00205
solubility (mole fraction) (in toluene, 323.15 K): 0.00249
solubility (mole fraction) (in toluene, 328.35 K): 0.00305
solubility (mole fraction) (in toluene, 333.15 K): 0.00367
solubility (mole fraction) (in toluene, 338.25 K): 0.00442
